Experimental data: ChEMBL document CHEMBL5647694, “Novel orally bioavailable EZH1/2 dual inhibitors with greater antitumor efficacy than an EZH2 selective inhibitor” (Cancer Sci, 2017)

Columns and labels:
GA-10 = experiment: Antitumor activity against human GA-10 cells assessed as cell growth inhibition treated for 10 to 15 days; type: functional; settings: time 10-15 day
[1] = target: Histone-lysine N-methyltransferase 2A (Homo sapiens, UniProt Q03164); experiment: Inhibition of human MLL1 using Nucleosomes and [3H]SAM as substrate incubated for 30 mins to 1 hr by HotSpot kinase assay
[2] = target: Histone-lysine N-methyltransferase PRDM9 (Homo sapiens, UniProt Q9NQV7); experiment: Inhibition of human PRDM9 using Histone H3 and [3H]SAM as substrate incubated for 30 mins to 1 hr by HotSpot kinase assay
Chain of Histone-lysine N-methyltransferase PRDM9 (Q9NQV7 whole entry): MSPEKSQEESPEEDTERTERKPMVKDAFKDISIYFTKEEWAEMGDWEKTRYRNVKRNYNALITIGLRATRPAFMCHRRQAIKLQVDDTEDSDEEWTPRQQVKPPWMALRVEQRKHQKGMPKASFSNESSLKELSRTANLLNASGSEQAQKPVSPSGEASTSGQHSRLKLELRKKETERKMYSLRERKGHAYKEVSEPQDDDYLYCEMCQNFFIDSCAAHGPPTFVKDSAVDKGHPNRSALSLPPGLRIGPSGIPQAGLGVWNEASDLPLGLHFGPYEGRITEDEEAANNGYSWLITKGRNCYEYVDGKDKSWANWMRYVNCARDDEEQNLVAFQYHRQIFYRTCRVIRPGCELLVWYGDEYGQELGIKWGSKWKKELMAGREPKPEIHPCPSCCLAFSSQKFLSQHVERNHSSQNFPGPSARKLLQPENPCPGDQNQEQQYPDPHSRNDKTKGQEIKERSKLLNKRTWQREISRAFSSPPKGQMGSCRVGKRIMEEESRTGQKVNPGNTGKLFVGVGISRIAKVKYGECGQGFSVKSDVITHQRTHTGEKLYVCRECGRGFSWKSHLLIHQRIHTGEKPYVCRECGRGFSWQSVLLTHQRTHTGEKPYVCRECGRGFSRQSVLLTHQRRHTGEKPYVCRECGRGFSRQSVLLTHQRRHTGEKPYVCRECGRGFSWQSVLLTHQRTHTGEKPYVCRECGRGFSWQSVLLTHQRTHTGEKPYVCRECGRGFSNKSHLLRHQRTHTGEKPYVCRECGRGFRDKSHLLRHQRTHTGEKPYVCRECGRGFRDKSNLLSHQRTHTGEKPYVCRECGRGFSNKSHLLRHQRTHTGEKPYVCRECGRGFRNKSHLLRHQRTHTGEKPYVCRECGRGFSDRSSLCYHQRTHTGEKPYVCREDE

[3] = target: N-lysine methyltransferase KMT5A (Homo sapiens, UniProt Q9NQR1); experiment: Inhibition of human SET8 using Nucleosomes and [3H]SAM as substrate incubated for 30 mins to 1 hr by HotSpot kinase assay
Chain of N-lysine methyltransferase KMT5A (Q9NQR1 whole entry): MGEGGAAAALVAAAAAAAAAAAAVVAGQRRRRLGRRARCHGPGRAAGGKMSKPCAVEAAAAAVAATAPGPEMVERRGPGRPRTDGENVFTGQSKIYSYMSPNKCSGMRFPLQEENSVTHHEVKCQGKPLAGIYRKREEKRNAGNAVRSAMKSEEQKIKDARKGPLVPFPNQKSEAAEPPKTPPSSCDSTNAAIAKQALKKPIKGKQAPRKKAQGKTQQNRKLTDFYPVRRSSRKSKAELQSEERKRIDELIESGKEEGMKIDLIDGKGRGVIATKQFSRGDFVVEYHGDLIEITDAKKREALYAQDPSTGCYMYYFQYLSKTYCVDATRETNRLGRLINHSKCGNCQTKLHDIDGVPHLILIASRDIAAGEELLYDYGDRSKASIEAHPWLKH

[4] = target: Protein arginine N-methyltransferase 1 (Homo sapiens, UniProt Q99873); experiment: Inhibition of human PRMT1 using Histone H4 and [3H]SAM as substrate incubated for 30 mins to 1 hr by HotSpot kinase assay
Chain of Protein arginine N-methyltransferase 1 (Q99873 whole entry, the tested form may be a part): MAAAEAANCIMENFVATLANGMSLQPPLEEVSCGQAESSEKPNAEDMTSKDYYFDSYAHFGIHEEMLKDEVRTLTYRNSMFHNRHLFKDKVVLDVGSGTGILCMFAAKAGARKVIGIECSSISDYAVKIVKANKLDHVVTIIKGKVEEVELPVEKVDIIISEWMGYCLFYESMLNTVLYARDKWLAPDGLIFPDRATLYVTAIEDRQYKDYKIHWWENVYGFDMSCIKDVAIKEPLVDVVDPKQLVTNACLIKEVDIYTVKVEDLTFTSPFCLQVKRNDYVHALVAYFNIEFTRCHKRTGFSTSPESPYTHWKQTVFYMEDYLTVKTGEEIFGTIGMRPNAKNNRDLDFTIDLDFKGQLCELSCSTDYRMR

[5] = target: Angiopoietin-1 receptor (Homo sapiens) (UniProt Q02763); experiment: Inhibition of N-terminal GST-tagged human TIE2 cytoplasmic domain (771 to 1124 residues) expressed in baculovirus-infected Sf21 cells using Blk/Lyntide as substrate at 1 uM in presence of ATP by Mobility shift assay
Chain of Angiopoietin-1 receptor (Homo sapiens) (Q02763 whole entry, the tested form may be a part): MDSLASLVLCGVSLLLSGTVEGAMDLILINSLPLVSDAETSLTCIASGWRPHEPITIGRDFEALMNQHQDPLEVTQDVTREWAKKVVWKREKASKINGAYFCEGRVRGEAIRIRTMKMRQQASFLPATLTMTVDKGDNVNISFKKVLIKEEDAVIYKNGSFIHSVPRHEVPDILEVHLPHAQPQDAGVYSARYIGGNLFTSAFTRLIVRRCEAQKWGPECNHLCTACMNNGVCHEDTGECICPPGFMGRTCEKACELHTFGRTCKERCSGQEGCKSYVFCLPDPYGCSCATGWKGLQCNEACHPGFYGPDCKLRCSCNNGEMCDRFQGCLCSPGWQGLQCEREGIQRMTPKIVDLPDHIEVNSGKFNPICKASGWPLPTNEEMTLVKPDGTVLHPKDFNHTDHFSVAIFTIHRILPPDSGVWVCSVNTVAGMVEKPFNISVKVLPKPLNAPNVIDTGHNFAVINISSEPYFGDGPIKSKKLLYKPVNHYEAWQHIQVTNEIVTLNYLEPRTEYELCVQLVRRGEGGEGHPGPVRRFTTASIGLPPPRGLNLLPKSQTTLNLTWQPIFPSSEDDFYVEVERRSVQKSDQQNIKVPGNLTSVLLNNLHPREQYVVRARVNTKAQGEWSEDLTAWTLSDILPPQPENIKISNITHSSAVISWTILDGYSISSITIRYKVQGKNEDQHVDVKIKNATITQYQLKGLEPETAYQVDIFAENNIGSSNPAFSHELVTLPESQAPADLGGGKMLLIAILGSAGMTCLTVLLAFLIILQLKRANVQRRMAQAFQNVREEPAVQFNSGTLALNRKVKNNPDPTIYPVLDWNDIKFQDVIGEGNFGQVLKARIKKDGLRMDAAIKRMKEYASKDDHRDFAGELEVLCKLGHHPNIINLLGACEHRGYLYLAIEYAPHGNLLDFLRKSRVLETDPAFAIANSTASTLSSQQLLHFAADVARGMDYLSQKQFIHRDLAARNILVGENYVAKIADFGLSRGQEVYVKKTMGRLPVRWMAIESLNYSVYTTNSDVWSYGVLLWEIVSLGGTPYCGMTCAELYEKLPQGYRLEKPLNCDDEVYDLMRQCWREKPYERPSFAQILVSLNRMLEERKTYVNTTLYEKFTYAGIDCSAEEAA

[6] = target: Ribosomal protein S6 kinase alpha-2 (Homo sapiens) (UniProt Q15349); experiment: Inhibition of N-terminal GST-fused human full length RSK3 (1 to 733 residues) expressed in baculovirus expression system using S6K peptide(N-FL) as substrate at 1 uM in presence of ATP by Mobility shift assay
Chain of Ribosomal protein S6 kinase alpha-2 (Homo sapiens) (Q15349 whole entry, the tested form may be a part): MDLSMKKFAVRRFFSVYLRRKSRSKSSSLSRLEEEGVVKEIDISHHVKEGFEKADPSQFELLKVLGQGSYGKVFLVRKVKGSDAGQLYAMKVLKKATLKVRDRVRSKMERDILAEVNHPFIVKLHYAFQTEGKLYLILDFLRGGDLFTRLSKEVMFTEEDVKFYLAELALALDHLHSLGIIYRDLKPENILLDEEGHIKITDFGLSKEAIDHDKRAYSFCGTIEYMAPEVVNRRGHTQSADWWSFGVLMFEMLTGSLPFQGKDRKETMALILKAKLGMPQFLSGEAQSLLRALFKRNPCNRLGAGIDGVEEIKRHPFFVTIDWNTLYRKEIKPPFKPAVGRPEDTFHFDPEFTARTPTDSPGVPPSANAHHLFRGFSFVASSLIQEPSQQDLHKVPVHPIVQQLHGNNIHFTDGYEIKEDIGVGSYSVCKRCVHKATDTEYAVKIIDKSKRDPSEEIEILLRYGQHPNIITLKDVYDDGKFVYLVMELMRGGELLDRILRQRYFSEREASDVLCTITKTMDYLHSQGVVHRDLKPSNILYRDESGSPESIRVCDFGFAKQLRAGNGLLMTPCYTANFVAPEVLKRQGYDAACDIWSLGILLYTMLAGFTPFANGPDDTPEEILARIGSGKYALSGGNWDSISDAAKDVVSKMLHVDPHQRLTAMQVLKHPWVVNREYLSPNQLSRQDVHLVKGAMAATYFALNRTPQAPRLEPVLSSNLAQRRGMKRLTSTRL

REH = experiment: Antitumor activity against human REH cells assessed as cell growth inhibition treated for 10 to 15 days; type: functional; settings: time 10-15 day
TALL-1 = experiment: Antitumor activity against human TALL-1 cells assessed as cell growth inhibition treated for 10 to 15 days; type: functional; settings: time 10-15 day
THP-1 = experiment: Antitumor activity against human THP-1 cells assessed as cell growth inhibition treated for 10 to 15 days; type: functional; settings: time 10-15 day
HT = experiment: Antitumor activity against human HT cells assessed as cell growth inhibition treated for 10 to 15 days; type: functional; settings: time 10-15 day
[7] = Antitumor activity against human CADO-ES1 cells assessed as cell growth inhibition treated for 10 to 15 days; type: functional; settings: time 10-15 day
[8] = Antitumor activity against human MINO cells assessed as cell growth inhibition treated for 10 to 15 days; type: functional; settings: time 10-15 day
[9] = Antitumor activity against human HuT 102 cells assessed as cell growth inhibition treated for 10 to 15 days; type: functional; settings: time 10-15 day
H9 = experiment: Antitumor activity against human H9 cells assessed as cell growth inhibition treated for 10 to 15 days; type: functional; settings: time 10-15 day
HuT78 = experiment: Antitumor activity against human HuT78 cells assessed as cell growth inhibition treated for 10 to 15 days; type: functional; settings: time 10-15 day
RPMI-8226 = experiment: Antitumor activity against human RPMI-8226 cells assessed as cell growth inhibition treated for 10 to 15 days; type: functional; settings: time 10-15 day
SK-BR-3 = experiment: Antitumor activity against human SK-BR-3 cells assessed as cell growth inhibition treated for 10 to 15 days; type: functional; settings: time 10-15 day
HCC1395 = experiment: Antitumor activity against human HCC1395 cells assessed as cell growth inhibition treated for 10 to 15 days; type: functional; settings: time 10-15 day
HCC1569 = experiment: Antitumor activity against human HCC1569 cells assessed as cell growth inhibition treated for 10 to 15 days; type: functional; settings: time 10-15 day
HCC1806 = experiment: Antitumor activity against human HCC1806 cells assessed as cell growth inhibition treated for 10 to 15 days; type: functional; settings: time 10-15 day
MCF7 = experiment: Antitumor activity against human MCF7 cells assessed as cell growth inhibition treated for 10 to 15 days; type: functional; settings: time 10-15 day
MDA-MB-157 = experiment: Antitumor activity against human MDA-MB-157 cells assessed as cell growth inhibition treated for 10 to 15 days; type: functional; settings: time 10-15 day
MDA-MB-468 = experiment: Antitumor activity against human MDA-MB-468 cells assessed as cell growth inhibition treated for 10 to 15 days; type: functional; settings: time 10-15 day
UACC-893 = experiment: Antitumor activity against human UACC-893 cells assessed as cell growth inhibition treated for 10 to 15 days; type: functional; settings: time 10-15 day
ACHN = experiment: Antitumor activity against human ACHN cells assessed as cell growth inhibition treated for 10 to 15 days; type: functional; settings: time 10-15 day
SNU-449 = experiment: Antitumor activity against human SNU-449 cells assessed as cell growth inhibition treated for 10 to 15 days; type: functional; settings: time 10-15 day
HCC2935 = experiment: Antitumor activity against human HCC2935 cells assessed as cell growth inhibition treated for 10 to 15 days; type: functional; settings: time 10-15 day
NCI-H1092 = experiment: Antitumor activity against human NCI-H1092 cells assessed as cell growth inhibition treated for 10 to 15 days; type: functional; settings: time 10-15 day
[10] = Antitumor activity against human COV434 cells assessed as cell growth inhibition treated for 10 to 15 days; type: functional; settings: time 10-15 day
TOV21G = experiment: Antitumor activity against human TOV-21G cells assessed as cell growth inhibition treated for 10 to 15 days; type: functional; settings: time 10-15 day
Hs 766 = experiment: Antitumor activity against human Hs766T cells assessed as cell growth inhibition treated for 10 to 15 days; type: functional; settings: time 10-15 day
VCaP = experiment: Antitumor activity against human VCaP cells assessed as cell growth inhibition treated for 10 to 15 days; type: functional; settings: time 10-15 day
SNU-16 = experiment: Antitumor activity against human SNU-16 cells assessed as cell growth inhibition treated for 10 to 15 days; type: functional; settings: time 10-15 day
KARPAS-422 = experiment: Antitumor activity against human KARPAS-422 cells xenografted in CB17/Icr-Prkdcscid/CrlCrlj mouse assessed as inhibition of tumor growth administered orally BID for 14 days; type: functional, cell-based; settings: dose 3.1-50 mg/kg, route po, time 14.0 day
[11] = Mean AUC (0-24 hrs) in Crl:CD Sprague-Dawley rat at 100 mg/kg, po administered daily for 14 days by LC/MS/MS analysis; type: ADME, organism-based; settings: in vivo, time 14 day
[12] = Toxicity in Crl:CD Sprague-Dawley rat assessed as neutrophil count in blood at 100 mg/kg, po administered daily for 14 days (reference value: 1.73+/-0.276 10^3/uL); type: organism-based; settings: in vivo, 336 h, time 14 day
[13] = Toxicity in Crl:CD Sprague-Dawley rat assessed as alanine aminotransferase level in blood at 100 mg/kg, po administered daily for 14 days (reference value: 35.5+/-1.91 U/L); type: organism-based; settings: in vivo, 336 h, time 14 day
[14] = Toxicity in Crl:CD Sprague-Dawley rat assessed as triglyceride level in blood at 100 mg/kg, po administered daily for 14 days (reference value: 132 +/-30 mg/dL); type: organism-based; settings: in vivo, 336 h, time 14 day
[15] = Toxicity in Crl:CD Sprague-Dawley rat assessed as globulin level in blood at 100 mg/kg, po administered daily for 14 days (reference value: 1.6 +/-0.082 g/dL); type: organism-based; settings: in vivo, 336 h, time 14 day
[16] = Toxicity in Crl:CD Sprague-Dawley rat assessed as urea nitrogen level in blood at 100 mg/kg, po administered daily for 14 days (reference value: 16.7+/-2.39 mg/dL); type: organism-based; settings: in vivo, 336 h, time 14 day
[17] = Toxicity in Crl:CD Sprague-Dawley rat assessed as atrophy of spleen at 100 mg/kg, po administered daily for 14 days by hematoxylin and eosin staining based analysis; type: organism-based; settings: in vivo, 336 h, time 14 day

Cc1cc(C)c(CNC(=O)c2cc(Cl)c3c(c2C)O[C@@](C)([C@H]2CC[C@H](N(C)C)CC2)O3)c(=O)[nH]1 [VALEMETOSTAT]
GI50 (GA-10): 0.0149 µM
IC50 [1]: 100 µM
IC50 [2]: 100 µM
IC50 [3]: 100 µM
IC50 [4]: 100 µM
inhibition [5]: -7.6%
inhibition [6]: -3.9%
GI50 (REH): > 1 µM
GI50 (TALL-1): > 1 µM
GI50 (THP-1): 0.0681 µM
GI50 (HT): 0.00174 µM
GI50 [7]: 0.952 µM
GI50 [8]: 0.0207 µM
GI50 [9]: 0.000987 µM
GI50 (H9): 0.00958 µM
GI50 (HuT78): > 1 µM
GI50 (RPMI-8226): 0.00191 µM
GI50 (SK-BR-3): 0.00638 µM
GI50 (HCC1395): > 1 µM
GI50 (HCC1569): > 1 µM
GI50 (HCC1806): > 1 µM
GI50 (MCF7): > 1 µM
GI50 (MDA-MB-157): > 1 µM
GI50 (MDA-MB-468): > 1 µM
GI50 (UACC-893): > 1 µM
GI50 (ACHN): > 1 µM
GI50 (SNU-449): > 1 µM
GI50 (HCC2935): > 1 µM
GI50 (NCI-H1092): > 1 µM
GI50 [10]: 0.0015 µM
GI50 (TOV21G): 0.0555 µM
GI50 (Hs 766): > 1 µM
GI50 (VCaP): 0.0507 µM
GI50 (SNU-16): > 1 µM

Cc1cc(C)c(CNC(=O)c2cc(Br)c3c(c2C)O[C@@](C)([C@H]2CC[C@H](N(C)C)CC2)O3)c(=O)[nH]1
Activity (KARPAS-422): Dose-Dependent Effect
AUC at 336 h [11]: 27.9 µM·h
Activity [12]: 0.583 10^3 /uL
Activity [13]: 27.5 U/L
Activity [14]: 90 mg/dL
Activity [15]: 1.55 g/dL
Activity [16]: 16.8 mg/dL
Activity [17]: Toxic
